Experimental data: patent publication US20160060260A1, “BROMODOMAIN INHIBITORS FOR TREATING DISEASE” (Board of Regents, The University of Texas System, priority 2014, published 2016)

biological target: T1, Recombinant human His-tagged Trim24-PHD-bromodomain (Homo sapiens, UniProt O15164); assay: Trim24 AlphaScreen Assay; assay type: binding; details: 5 nM Trim24 protein, 15 nM biotinylated H3K23ac (1-33aa) peptide
T1 construct: Recombinant human His-tagged Trim24-PHD-bromodomain (produced in-house); made in house
T1 sequence (O15164 824-1006 limits assumed): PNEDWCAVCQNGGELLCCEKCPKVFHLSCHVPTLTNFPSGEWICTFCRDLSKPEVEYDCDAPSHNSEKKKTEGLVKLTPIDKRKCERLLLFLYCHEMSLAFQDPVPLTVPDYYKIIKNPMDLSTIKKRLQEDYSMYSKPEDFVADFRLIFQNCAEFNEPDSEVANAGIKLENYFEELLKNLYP
Procedure: Recombinant human His-tagged Trim24-PHD-bromodomain (produced in-house), biotinylated H3K23ac (1-33aa) peptide (AnaSpec, Inc.), and test compound were added to a 384-well OptiPlate (Perkin Elmer) and incubated at room temperature for one hour. The assay buffer consisted of 50 mM Hepes, pH 7.5, 100 mM NaCl, and 0.12 mM Triton X-100.
Streptavidin donor beads and nickel chelate acceptor beads, both from a Perkin Elmer AlphaScreen Histidine Detection Kit, were then added to the Optiplate to a final concentration of 10 ug/mL each. Following a 2 hour incubation at room temperature, the microplate was read on an Envision Plate Reader (Perkin Elmer). Percent of control (POC) values were calculated from the following formula:
POC=[sample signal-average background signal]/[average maximum signal−average background signal]*100
The average maximum signal was obtained from wells containing all assay components except test compound. The average background signal pertained to wells with all assay components except Trim24 and test compound. IC50 values were calculated using a four-parameter logistic curve fit.

SMILES	IC50
Cn1cnc(S(=O)(=O)Nc2cc3c(cc2Oc2cccc(OCCCO)c2)n(C)c(=O)n3C)c1 [Example 240, N-(6-(3-(3-hydroxypropoxy)phenoxy)-1,3-dimethyl-2-oxo-2,3-dihydro-1H-benzo[d]imidazol-5-yl)-1-methyl-1H-imidazole-4-sulfonamide]	100 to 1000 nM
CCCOc1cc(OCCCOC)cc(Oc2cc3c(cc2NS(=O)(=O)c2ccc(OC)c(OC)c2)n(C)c(=O)n3C)c1 [Example 138, 3,4-dimethoxy-N-(6-(3-(3-methoxypropoxy)-5-propoxyphenoxy)-1,3-dimethyl-2-oxo-2,3-dihydro-1H-benzo[d]imidazol-5-yl)benzenesulfonamide]	10 to 100 nM
COCCCOc1cc(OCC(F)(F)F)cc(Oc2cc3c(cc2NS(=O)(=O)c2cn(C)c(C)n2)n(C)c(=O)n3C)c1 [Example 141, N-(6-(3-(3-methoxypropoxy)-5-(2,2,2-trifluoroethoxy)phenoxy)-1,3-dimethyl-2-oxo-2,3-dihydro-1H-benzo[d]imidazol-5-yl)-1,2-dimethyl-1H-imidazole-4-sulfonamide]	10 to 100 nM
CCCOc1cc(C#N)cc(Oc2cc3c(cc2NS(=O)(=O)c2cn(C)cn2)n(C)c(=O)n3C)c1 [Example 108, N-(6-(3-cyano-5-propoxyphenoxy)-1,3-dimethyl-2-oxo-2,3-dihydro-1H-benzo[d]imidazol-5-yl)-1-methyl-1H-imidazole-4-sulfonamide]	10 to 100 nM
Cc1nc(S(=O)(=O)Nc2cc3c(cc2Oc2cccc(OCc4ccccc4)c2)n(C)c(=O)n3C)c[nH]1 [Example 49, N-(6-(3-(benzyloxy)phenoxy)-1,3-dimethyl-2-oxo-2,3-dihydro-1H-benzo[d]imidazol-5-yl)-2-methyl-1H-imidazole-4-sulfonamide]	100 to 1000 nM
COc1ccccc1S(=O)(=O)Nc1cc2c(cc1Oc1cccc(OCc3ccccc3)c1)n(C)c(=O)n2C [Example 52, N-(6-(3-(benzyloxy)phenoxy)-1,3-dimethyl-2-oxo-2,3-dihydro-1H-benzo[d]imidazol-5-yl)-2-methoxybenzenesulfonamide]	100 to 1000 nM
CCCOc1ccc(F)c(Oc2cc3c(cc2NS(=O)(=O)c2ccc(OC)c(OC)c2)n(C)c(=O)n3C)c1 [Example 134, N-(6-(2-fluoro-5-propoxyphenoxy)-1,3-dimethyl-2-oxo-2,3-dihydro-1H-benzo[d]imidazol-5-yl)-3,4-dimethoxybenzenesulfonamide]	10 to 100 nM
Cc1c(S(=O)(=O)Nc2cc3c(cc2Oc2cc(OCCCCN)cc(OCC(F)(F)F)c2)n(C)c(=O)n3C)cnn1C [Example 209, N-(6-(3-(4-aminobutoxy)-5-(2,2,2-trifluoroethoxy)phenoxy)-1,3-dimethyl-2-oxo-2,3-dihydro-1H-benzo[d]imidazol-5-yl)-1,5-dimethyl-1H-pyrazole-4-sulfonamide]	1 to 10 nM
CCCOc1cc(OCCCOC)cc(Oc2cc3c(cc2NS(=O)(=O)c2cccc(CC)c2)n(C)c(=O)n3C)c1 [Example 160, 3-ethyl-N-(6-(3-(3-methoxypropoxy)-5-propoxyphenoxy)-1,3-dimethyl-2-oxo-2,3-dihydro-1H-benzo[d]imidazol-5-yl)benzenesulfonamide]	100 to 1000 nM
Cc1n[nH]cc1S(=O)(=O)Nc1cc2c(cc1Oc1cccc(OCc3ccccc3)c1)n(C)c(=O)n2C [Example 48, N-(6-(3-(benzyloxy)phenoxy)-1,3-dimethyl-2-oxo-2,3-dihydro-1H-benzo[d]imidazol-5-yl)-3-methyl-1H-pyrazole-4-sulfonamide]	100 to 1000 nM
CCCOc1cc(OCCCCN2CC(O)C2)cc(Oc2cc3c(cc2NS(=O)(=O)c2ccc(OC)c(OC)c2)n(C)c(=O)n3C)c1 [Example 248, N-(6-{3-[4-(3-hydroxyazetidin-1-yl)butoxy]-5-propoxyphenoxy}-1,3-dimethyl-2-oxo-2,3-dihydro-1H-1,3-benzodiazol-5-yl)-3,4-dimethoxybenzene-1-sulfonamide]	10 to 100 nM
CN(C)CCCCOc1cccc(Oc2cc3c(cc2NS(=O)(=O)c2cn(C)cn2)n(C)c(=O)n3C)c1 [Example 9, N-(6-(3-(4-(dimethylamino)butoxy)phenoxy)-1,3-dimethyl-2-oxo-2,3-dihydro-1H-benzo[d]imidazol-5-yl)-1-methyl-1H-imidazole-4-sulfonamide 2,2,2-trifluoroacetate]	> 1000 nM
CCCOc1cccc(Oc2cc3c(cc2NS(=O)(=O)CCOC)n(C)c(=O)n3C)c1 [Example 85, N-(1,3-dimethyl-2-oxo-6-(3-propoxyphenoxy)-2,3-dihydro-1H-benzo[d]imidazol-5-yl)-2-methoxyethane-1-sulfonamide]	100 to 1000 nM

Other lines, results leading:

IC50	SMILES
10 to 100 nM	COCCCOc1cc(OCC(F)(F)F)cc(Oc2cc3c(cc2NS(=O)(=O)c2ccc(OC)c(OC)c2)n(C)c(=O)n3C)c1 [Example 195]
100 to 1000 nM	Cn1cnc(S(=O)(=O)Nc2cc3c(cc2Oc2cccc(OCC(C)(O)CNCCN)c2)n(C)c(=O)n3C)c1 (stereo not drawn) [Example 237, N-[6-(3-{3-[(2-aminoethyl)amino]-2-hydroxy-2-methylpropoxy}phenoxy)-1,3-dimethyl-2-oxo-2,3-dihydro-1H-1,3-benzodiazol-5-yl]-1-methyl-1H-imidazole-4-sulfonamide]
10 to 100 nM	CCCOc1cc(OCCCCCN)cc(Oc2cc3c(cc2NS(=O)(=O)c2cn(C)cn2)n(C)c(=O)n3C)c1 [Example 197, N-(6-(3-((5-aminopentyl)oxy)-5-propoxyphenoxy)-1,3-dimethyl-2-oxo-2,3-dihydro-1H-benzo[d]imidazol-5-yl)-1-methyl-1H-imidazole-4-sulfonamide]
10 to 100 nM	CCCOc1cc(OCCCOC)cc(Oc2cc3c(cc2NS(=O)(=O)c2cccc(C#N)c2)n(C)c(=O)n3C)c1 [Example 165, 3-cyano-N-(6-(3-(3-methoxypropoxy)-5-propoxyphenoxy)-1,3-dimethyl-2-oxo-2,3-dihydro-1H-benzo[d]imidazol-5-yl)benzenesulfonamide]
100 to 1000 nM	COc1cccc(S(=O)(=O)Nc2cc3c(cc2Oc2cccc(OCc4ccccc4)c2)n(C)c(=O)n3C)c1 [Example 18, N-(6-(3-(benzyloxy)phenoxy)-1,3-dimethyl-2-oxo-2,3-ddihydro-1H-benzo[d]imidazol-5-yl)-3-methoxybenzenesulfonamide]
100 to 1000 nM	COc1ccc(S(=O)(=O)Nc2cc3c(cc2Oc2cccc(OCc4ccccc4)c2)n(C)c(=O)n3C)cc1 [Example 17, N-(6-(3-(benzyloxy)phenoxy)-1,3-dimethyl-2-oxo-2,3-dihydro-1H-benzo[d]imidazol-5-yl)-4-methoxybenzenesulfonamide]
100 to 1000 nM	Cn1cnc(S(=O)(=O)Nc2cc3c(cc2Oc2cccc(OCC(C)(O)CO)c2)n(C)c(=O)n3C)c1 (stereo not drawn) [Example 231, N-{6-[3-(2,3-dihydroxy-2-methylpropoxy)phenoxy]-1,3-dimethyl-2-oxo-2,3-dihydro-1H-1,3-benzodiazol-5-yl}-1-methyl-1H-imidazole-4-sulfonamide]
10 to 100 nM	CCCOc1cc(OCCCCCCN(C)C)cc(Oc2cc3c(cc2NS(=O)(=O)c2cn(C)cn2)n(C)c(=O)n3C)c1 [Example 188, N-(6-(3-((6-(dimethylamino)hexyl)oxy)-5-propoxyphenoxy)-1,3-dimethyl-2-oxo-2,3-dihydro-1H-benzo[d]imidazol-5-yl)-1-methyl-1H-imidazole-4-sulfonamide]
